Our source for the IC50 values is patent US10273224B2, “Substituted pyrimidine compounds, compositions and medicinal applications thereof” (JUBILANT BIOSYS LIMITED, priority 2013, dated 2019).

For orientation: pIC50 means −log10 of the IC50, conventionally taken in molar units.

In this experiment the target is T1, EGFR (L858R & T790M) (Homo sapiens, UniProt P00533, L858R/T790M).
T1 construct: GST; purchased Proqinase
As to the kind of experiment: EGFR (L858R & T790M) inhibition assay, HTRF method. The following applies: biochemical HTRF; EGFR (T790M/L858R) 2.5 nM, ATP 5 μM, 60 min room temperature. Put shortly:
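GST-EGFR T790M/L858R (2.5 nM) phosphorylating biotinylated gastrin precursor peptide (0.5 μM) with 5 μM ATP in HEPES pH 7.4/Mg/Mn buffer, 60 min room temperature; compounds from 10 μM top. HTRF read-out (Eu anti-pTyr, SA-APC), 665/620 nm; IC50 from % inhibition.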
For orientation: In TR-FRET formats the signal depends on donor and acceptor labels being close together.

pIC50: −log10 of the molar value. A value given as a limit tells only on which side of the number the result lay.

T1 sequence (P00533 25-1210 T790M/L858R): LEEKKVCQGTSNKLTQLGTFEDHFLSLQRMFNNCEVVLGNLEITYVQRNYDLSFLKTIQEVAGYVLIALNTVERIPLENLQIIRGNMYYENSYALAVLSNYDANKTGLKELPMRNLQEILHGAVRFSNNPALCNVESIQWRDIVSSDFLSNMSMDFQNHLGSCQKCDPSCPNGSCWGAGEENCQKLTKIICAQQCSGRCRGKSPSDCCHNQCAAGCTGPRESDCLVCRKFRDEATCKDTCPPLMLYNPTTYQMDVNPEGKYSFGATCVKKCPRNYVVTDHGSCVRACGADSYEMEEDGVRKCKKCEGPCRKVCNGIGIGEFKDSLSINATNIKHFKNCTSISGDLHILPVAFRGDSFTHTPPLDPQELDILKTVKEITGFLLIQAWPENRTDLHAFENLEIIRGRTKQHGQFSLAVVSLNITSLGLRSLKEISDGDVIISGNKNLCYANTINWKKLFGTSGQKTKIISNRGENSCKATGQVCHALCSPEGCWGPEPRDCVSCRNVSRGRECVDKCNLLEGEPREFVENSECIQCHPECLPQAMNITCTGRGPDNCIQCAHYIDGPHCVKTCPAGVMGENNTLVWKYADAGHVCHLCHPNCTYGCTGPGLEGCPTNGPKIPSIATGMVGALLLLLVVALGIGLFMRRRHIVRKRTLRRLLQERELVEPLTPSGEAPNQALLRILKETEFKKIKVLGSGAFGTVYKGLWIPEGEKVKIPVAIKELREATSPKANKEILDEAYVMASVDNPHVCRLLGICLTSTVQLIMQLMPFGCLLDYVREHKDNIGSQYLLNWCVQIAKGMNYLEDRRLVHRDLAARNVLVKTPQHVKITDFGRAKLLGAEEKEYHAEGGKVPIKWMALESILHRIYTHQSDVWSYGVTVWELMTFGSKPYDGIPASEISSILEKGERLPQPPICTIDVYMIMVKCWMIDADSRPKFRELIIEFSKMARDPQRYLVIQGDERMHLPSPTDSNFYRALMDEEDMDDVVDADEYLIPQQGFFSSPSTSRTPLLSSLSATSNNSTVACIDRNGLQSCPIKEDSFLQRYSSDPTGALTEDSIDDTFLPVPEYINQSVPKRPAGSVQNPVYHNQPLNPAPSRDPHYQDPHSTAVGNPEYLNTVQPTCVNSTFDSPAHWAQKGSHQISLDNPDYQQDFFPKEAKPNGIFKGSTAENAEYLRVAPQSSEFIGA

As to `C=CC(=O)Nc1ccnc(Nc2nc(Nc3cnn(C)c3)ncc2Cl)c1` [Compound I-116, N-(2-((5-chloro-2-((1-methyl-1H-pyrazol-4-yl)amino)pyrimidin-4-yl)amino)pyridin-4-yl)acrylamide], the negative logarithm of the IC50 (pIC50) was 7.00 to 8.00.

Consider `C=CC(=O)Nc1ccc(F)c(Nc2nc(Nc3cc(C)ns3)ncc2Cl)c1` [Compound I-117, N-(3-((5-chloro-2-((3-methylisothiazol-5-yl)amino)pyrimidin-4-yl)amino)-4-fluorophenyl)acrylamide], for which the negative-log IC50 (pIC50) is > 8.00. Consider `C=CC(=O)Nc1ccc(F)c(Nc2nc(Nc3cc(C)no3)ncc2Cl)c1` [Compound I-118, N-(3-((5-chloro-2-((3-methylisoxazol-5-yl)amino)pyrimidin-4-yl)amino)-4-fluorophenyl)acrylamide], for which the negative logarithm of the IC50 (pIC50) was 7.00 to 8.00. Under `C=CC(=O)Nc1ccc(F)c(Nc2nc(Nc3onc(C)c3C)ncc2Cl)c1` [Compound I-119, N-(3-((5-chloro-2-((3,4-dimethylisoxazol-5-yl)amino)pyrimidin-4-yl)amino)-4-fluorophenyl)acrylamide] stands < 7.00; under `C=CC(=O)Nc1ccc(F)c(Nc2nc(Nc3ncc(Cl)s3)ncc2Cl)c1` [Compound I-120, N-(3-((5-chloro-2-((5-chlorothiazol-2-yl)amino)pyrimidin-4-yl)amino)-4-fluorophenyl)acrylamide], < 7.00. Consider `C=CC(=O)Nc1ccc(F)c(Nc2nc(Nc3ncc(C#N)s3)ncc2Cl)c1` [Compound I-121, N-(3-((5-chloro-2-((5-cyanothiazol-2-yl)amino)pyrimidin-4-yl)amino)-4-fluorophenyl)acrylamide], for which the negative-log IC50 (pIC50) is < 7.00.

Turning to `C=CC(=O)Nc1cccc(Nc2nc(Nc3cc(C)ns3)ncc2Cl)c1` [Compound I-122, N-(3-((5-chloro-2-((3-methylisothiazol-5-yl)amino)pyrimidin-4-yl)amino)phenyl)acrylamide], the pIC50 is > 8.00. `C=CC(=O)Nc1cccc(Nc2nc(Nc3ncc(C)s3)ncc2Cl)c1` [Compound I-123, N-(3-((5-chloro-2-((5-methylthiazol-2-yl)amino)pyrimidin-4-yl)amino)phenyl)acrylamide]: the negative logarithm of the IC50 (pIC50) was 7.00 to 8.00.

With `C=CC(=O)Nc1cccc(Nc2nc(Nc3nc(C)cs3)ncc2Cl)c1` [Compound I-124, N-(3-((5-chloro-2-((4-methylthiazol-2-yl)amino)pyrimidin-4-yl)amino)phenyl)acrylamide], the negative logarithm of the IC50 (pIC50) is 7.00 to 8.00. The figure for `C=CC(=O)Nc1cccc(Nc2nc(Nc3cc(C)no3)ncc2Cl)c1` [Compound I-125, N-(3-((5-chloro-2-((3-methylisoxazol-5-yl)amino)pyrimidin-4-yl)amino)phenyl)acrylamide] is 7.00 to 8.00; for `C=CC(=O)NC1CCCC(Nc2nc(Nc3cnn(C)c3)ncc2Cl)C1` (stereo not shown) [Compound I-126, N-(3-((5-chloro-2-((1-methyl-1H-pyrazol-4-yl)amino)pyrimidin-4-yl)amino)cyclohexyl)acrylamide 4-methylbenzenesulfonate] it is < 7.00. Under `C=CC(=O)N1CCC(Nc2nc(Nc3cnn(C)c3)ncc2Cl)CC1` [II-8, 1-(4-((5-chloro-2-((1-methyl-1H-pyrazol-4-yl)amino)pyrimidin-4-yl)amino)piperidin-1-yl)prop-2-en-1-one] stands < 7.00. With `C=CC(=O)N1CCCC(CNc2nc(Nc3cnn(C)c3)ncc2Cl)C1` (stereo not shown) [II-9, 1-(3-(((5-chloro-2-((1-methyl-1H-pyrazol-4-yl)amino)pyrimidin-4-yl)amino)methyl)piperidin-1-yl)prop-2-en-1-one], the negative-log IC50 (pIC50) is < 7.00.
